In test [1] the target is T1, AHR (Homo sapiens, UniProt P35869).
T1 construct: U87 MG glioblastoma cells (ATCC #HTB-14) endogenously expressing AHR; endogenous in cells; host or cells: U87 MG glioblastoma cells (ATCC #HTB-14)
T1 sequence (P35869 11-848): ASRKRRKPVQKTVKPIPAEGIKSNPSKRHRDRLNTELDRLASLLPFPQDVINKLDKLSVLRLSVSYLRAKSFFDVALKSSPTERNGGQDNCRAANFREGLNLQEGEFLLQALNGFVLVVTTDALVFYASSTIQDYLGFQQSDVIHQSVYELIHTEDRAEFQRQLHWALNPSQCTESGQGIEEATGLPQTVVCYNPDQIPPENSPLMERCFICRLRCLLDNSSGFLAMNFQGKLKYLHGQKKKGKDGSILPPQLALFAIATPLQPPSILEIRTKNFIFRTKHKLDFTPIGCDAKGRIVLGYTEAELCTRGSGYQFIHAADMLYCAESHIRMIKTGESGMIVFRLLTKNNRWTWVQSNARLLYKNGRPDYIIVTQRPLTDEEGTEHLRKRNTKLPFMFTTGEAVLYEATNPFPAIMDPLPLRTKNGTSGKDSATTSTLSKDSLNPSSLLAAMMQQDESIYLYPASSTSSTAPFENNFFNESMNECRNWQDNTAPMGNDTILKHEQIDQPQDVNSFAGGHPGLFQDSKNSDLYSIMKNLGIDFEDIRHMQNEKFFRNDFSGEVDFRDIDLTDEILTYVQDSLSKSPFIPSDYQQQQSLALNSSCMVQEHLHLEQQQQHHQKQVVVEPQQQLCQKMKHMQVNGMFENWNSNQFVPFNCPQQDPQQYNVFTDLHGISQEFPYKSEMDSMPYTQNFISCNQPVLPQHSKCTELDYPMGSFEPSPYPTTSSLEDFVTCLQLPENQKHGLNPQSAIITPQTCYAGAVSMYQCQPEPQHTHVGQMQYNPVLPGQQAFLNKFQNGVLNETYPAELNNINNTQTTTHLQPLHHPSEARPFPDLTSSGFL
Briefly: In vitro assay 1: antagonism in human cell line (AHR transactivation, firefly luciferase reporter, kynurenic acid prestimulated). It is filed as cell-based. The note with it: AHR Antagonism Human IC50 [M]. Put shortly: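 U87 MG + DRE-firefly/constitutive-Renilla stable reporters; kynurenic acid prestim; dual-luc read; Renilla = tox; normalized vs pos/neg controls (pos: 150 μM KYNA + 5 μM staurosporine).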

The target in test [2] is T2, AHR (Mus musculus, UniProt P30561).
T2 sequence (P30561 1-848 P471L/N533S/M589L): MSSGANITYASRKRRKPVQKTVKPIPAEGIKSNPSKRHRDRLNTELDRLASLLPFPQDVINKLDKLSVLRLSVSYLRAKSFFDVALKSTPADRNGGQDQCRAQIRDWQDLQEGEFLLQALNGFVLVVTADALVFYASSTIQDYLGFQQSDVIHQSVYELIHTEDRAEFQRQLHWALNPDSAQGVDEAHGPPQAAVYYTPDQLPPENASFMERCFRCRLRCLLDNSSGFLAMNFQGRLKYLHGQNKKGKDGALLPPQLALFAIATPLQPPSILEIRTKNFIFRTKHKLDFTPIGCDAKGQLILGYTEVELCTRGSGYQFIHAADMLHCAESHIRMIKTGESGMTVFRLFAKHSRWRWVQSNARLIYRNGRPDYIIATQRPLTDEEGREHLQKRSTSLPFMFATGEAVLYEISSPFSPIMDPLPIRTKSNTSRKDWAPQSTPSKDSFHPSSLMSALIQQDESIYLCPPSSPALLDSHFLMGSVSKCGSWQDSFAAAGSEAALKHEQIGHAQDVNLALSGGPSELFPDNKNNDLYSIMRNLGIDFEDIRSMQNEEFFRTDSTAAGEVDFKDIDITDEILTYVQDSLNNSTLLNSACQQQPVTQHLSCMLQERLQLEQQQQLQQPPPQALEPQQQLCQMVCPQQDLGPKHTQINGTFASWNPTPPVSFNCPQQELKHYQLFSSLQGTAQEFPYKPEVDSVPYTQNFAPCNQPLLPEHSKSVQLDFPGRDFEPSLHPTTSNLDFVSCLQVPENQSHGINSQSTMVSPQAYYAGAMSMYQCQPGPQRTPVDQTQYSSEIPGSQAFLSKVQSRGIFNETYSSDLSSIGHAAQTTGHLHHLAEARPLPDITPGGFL
Put plainly: In vitro assay 3: antagonism in mouse cell line (AHR transactivation, firefly luciferase reporter, kynurenic acid prestimulated). Format: cell-based. The method, boiled down: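 Mouse cells stably carrying a DRE-driven, AHR-inducible firefly luciferase reporter were prestimulated with the endogenous agonist kynurenic acid before compound addition. Luciferase activity was measured by luminescence and normalized to positive and negative controls, with cells lacking kynurenic acid serving as full-inhibition control. Repeat tests are reported as mean or median.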

Where [3] appears, read: mouse Hepa 1c1c7 cells, 200 μM kynurenic acid, 20 hours, read-out: AHR Antagonism Mouse IC50.
Where [4] appears, read: read-out: AHR Antagonism Mouse IC50, mouse Hepa 1c1c7 cells, 200 μM kynurenic acid, 20 hours.

Where two headings read alike, the source gives them in different places.

One may read the IC50 as the concentration needed to halve the response being measured. Consider `O=C1NCCCCCC1Nc1nc2ccccc2c2nc(-c3ccccc3OC(F)(F)F)nn12` (centres unmarked) [Example 461, 3-({2-[2-(trifluoromethoxy)phenyl][1,2,4]triazolo[1,5-c]quinazolin-5-yl}amino)azocan-2-one], for which the results for the IC50 on AHR [1] and on AHR [2] (setting [3]) were 6.18e-09 M and 1.95 nM, respectively.
Take `CCNC(=O)C(CC)Nc1nc2ccccc2c2nc(-c3ccccc3OC(F)(F)F)nn12` (centres unmarked) [Example 463, N-ethyl-2-({2-[2-(trifluoromethoxy)phenyl][1,2,4]triazolo[1,5-c]quinazolin-5-yl}amino)butanamide]: the IC50 against AHR [1] is 2.94e-08 M; at AHR [2] (setting [3]), 1.88 nM.
The like results for `CCC[C@@H](Nc1nc2ccccc2c2nc(-c3ccccc3OC(F)(F)F)nn12)C(=O)NC` [Example 464, N-methyl-N^2-{2-[2-(trifluoromethoxy)phenyl][1,2,4]triazolo[1,5-c]quinazolin-5-yl}-D-norvalinamide] were, in that order, 5.89e-08 M and 3.91 nM.
The like results for `CCCNC(=O)[C@@H](C)Nc1nc2ccccc2c2nc(-c3ccccc3OC(F)(F)F)nn12` [Example 465, N-propyl-N^2-{2-[2-(trifluoromethoxy)phenyl][1,2,4]triazolo[1,5-c]quinazolin-5-yl}-D-alaninamide] were, in that order, 1.34e-08 M and 3.87 nM.
As to `CCCCNC(=O)CNc1nc2ccccc2c2nc(-c3ccccc3OC(F)(F)F)nn12` [Example 466, N-butyl-N^2-{2-[2-(trifluoromethoxy)phenyl][1,2,4]triazolo[1,5-c]quinazolin-5-yl}glycinamide], the IC50 was found to be 1.26e-07 M against AHR [1] and 107 nM at AHR [2] (setting [3]).
The like results for `NC(=O)[C@@H](CO)Nc1nc2ccccc2c2nc(-c3ccccc3OC(F)(F)F)nn12` [Example 468, N^2-{2-[2-(trifluoromethoxy)phenyl][1,2,4]triazolo[1,5-c]quinazolin-5-yl}-D-serinamide] were, in that order, 6.73e-08 M and 42.7 nM.
The like results for `CC[C@@H](Nc1nc2ccccc2c2nc(-c3ccccc3OC(F)(F)F)nn12)C(N)=O` [Example 469, (2R)-2-({2-[2-(trifluoromethoxy)phenyl][1,2,4]triazolo[1,5-c]quinazolin-5-yl}amino)butanamide] were, in that order, 1.64e-08 M and 1.2 nM.
The like results for `O=C1NCCCC[C@H]1Nc1nc2ccccc2c2nc(-c3ccccc3OC(F)F)nn12` [Example 470, (3R)-3-({2-[2-(difluoromethoxy)phenyl][1,2,4]triazolo[1,5-c]quinazolin-5-yl}amino)azepan-2-one] were, in that order, 1.34e-09 M and 0.5 nM.
In the case of `O=C1NCCCC[C@@H]1Nc1nc2ccccc2c2nc(-c3ccccc3OC(F)F)nn12` [Example 471, (3S)-3-({2-[2-(difluoromethoxy)phenyl][1,2,4]triazolo[1,5-c]quinazolin-5-yl}amino)azepan-2-one], the IC50 against AHR [1] worked out at 5.6e-08 M; on AHR [2] (setting [3]), 5.26 nM.
The like results for `O=C1NCCC[C@H]1Nc1nc2ccccc2c2nc(-c3ccccc3OC(F)F)nn12` [Example 472, (3R)-3-({2-[2-(difluoromethoxy)phenyl][1,2,4]triazolo[1,5-c]quinazolin-5-yl}amino)piperidin-2-one] were, in that order, 3.72e-08 M and 38.1 nM.
As to `O=C1NCC[C@H]1Nc1nc2ccccc2c2nc(-c3ccccc3OC(F)F)nn12` [Example 473, (3R)-3-({2-[2-(difluoromethoxy)phenyl][1,2,4]triazolo[1,5-c]quinazolin-5-yl}amino)pyrrolidine-2-one], the IC50 stood at 5.1e-08 M on AHR [1] and 17.9 nM on AHR [2] (setting [3]).
On to `O=C1NCCCCCC1Nc1nc2ccccc2c2nc(-c3ccccc3OC(F)F)nn12` (centres unmarked) [Example 474, 3-({2-[2-(difluoromethoxy)phenyl][1,2,4]triazolo[1,5-c]quinazolin-5-yl}amino)azocan-2-one], for which the IC50 against AHR [1] was 3.11e-09 M; on AHR [2] (setting [3]) it was 1.37 nM.
Take `CC[C@H](Nc1nc2ccccc2c2nc(-c3ccccc3OC(F)F)nn12)C(N)=O` [Example 475, (2S)-2-({2-[2-(difluoromethoxy)phenyl][1,2,4]triazolo[1,5-c]quinazolin-5-yl}amino)butanamaide]: the IC50 on AHR [1] was more than 2e-05 M; at AHR [2] (setting [4]), 71.7 nM.
The like results for `CC[C@@H](Nc1nc2ccccc2c2nc(-c3ccccc3OC(F)F)nn12)C(N)=O` [Example 476, (2R)-2-({2-[2-(difluoromethoxy)phenyl][1,2,4]triazolo[1,5-c]quinazolin-5-yl}amino)butanamide] were, in that order, 3.93e-09 M and 0.554 nM.
Turning to `CCC[C@@H](Nc1nc2ccccc2c2nc(-c3ccccc3OC(F)F)nn12)C(=O)NC` [Example 477, N^2-{2-[2-(difluoromethoxy)phenyl][1,2,4]triazolo[1,5-c]quinazolin-5-yl}-N-methyl-D-norvalinamide], the IC50 at AHR [1] amounted to 1.81e-08 M; at AHR [2] (setting [3]) it was 1.44 nM.
Consider `CSc1ccccc1-c1nc2c3ccccc3nc(N[C@@H]3CCCCNC3=O)n2n1` [Example 478, (3R)-3-({2-[2-(methylsulfanyl)phenyl][1,2,4]triazolo[1,5-c]quinazolin-5-yl}amino)azepan-2-one], for which the IC50 turned out to be 4.98e-08 M against AHR [1] and 2.99 nM on AHR [2] (setting [3]).
`O=C1NCCCC[C@H]1Nc1nc2ccccc2c2nc(-c3cncc(F)c3)nn12` [Example 479, (3R)-3-{[2-(5-fluoropyridin-3-yl)[1,2,4]triazolo[1,5-c]quinazolin-5-yl]amino}azepan-2-one]: the IC50 against AHR [1] was 3.53e-08 M; at AHR [2] (setting [4]), 33.2 nM.
On to `O=C1NCCCC[C@H]1Nc1nc2ccccc2c2nc(-c3cncc(Cl)c3)nn12` [Example 480, (3R)-3-{[2-(5-chloropyridin-3-yl)[1,2,4]triazolo[1,5-c]quinazolin-5-yl]amino}azepan-2-one], for which the IC50 on AHR [1] turned out to be 2.07e-08 M; on AHR [2] (setting [3]), 14.8 nM.
The like results for `O=C1NCCCC[C@@H]1Nc1nc2ccccc2c2nc(-c3ccncc3F)nn12` [Example 481, (3S)-3-{[2-(3-fluoropyridin-4-yl)[1,2,4]triazolo[1,5-c]quinazolin-5-yl]amino}azepan-2-one] were, in that order, 1.02e-06 M and 104 nM.
`O=C1NCCC[C@H]1Nc1nc2ccccc2c2nc(-c3ccncc3F)nn12` [Example 482, (3R)-3-{[2-(3-fluoropyridin-4-yl)[1,2,4]triazolo[1,5-c]quinazolin-5-yl]amino}piperidin-2-one]: the concentration for half-maximal inhibition (IC50) on AHR [1] came out at 2.23e-06 M; at AHR [2] (setting [3]), 3160 nM.
As to `O=C1NCC[C@H]1Nc1nc2ccccc2c2nc(-c3ccncc3F)nn12` [Example 483, (3R)-3-{[2-(3-fluoropyridin-4-yl)[1,2,4]triazolo[1,5-c]quinazolin-5-yl]amino}pyrrolidin-2-one], the figures for the concentration for half-maximal inhibition (IC50) at AHR [1] and on AHR [2] (setting [3]) were 1.45e-06 M and 2170 nM, respectively.
The like results for `CC[C@@H](Nc1nc2ccccc2c2nc(-c3ccncc3F)nn12)C(N)=O` [Example 484, (2R)-2-{[2-(3-fluoropyridin-4-yl)[1,2,4]triazolo[1,5-c]quinazolin-5-yl]amino}butanamide] were, in that order, 9.06e-08 M and 27.6 nM.

For the origin of these results see patent US20230113037A1 (Bayer Aktiengesellschaft, priority 2019, published 2023).
